One series deals with CHO-K1 cells. Put plainly: In vitro micronucleus test. Type of series: cell-based. The note with it: presence and absence of S9. From the text:
Similar, negative results were obtained in an in vitro micronucleus test in CHO-K1 cells, in both the presence and absence of S9.

The next series in a line: Solubility. Type of series: physicochemical. The note with it: pH 7.4, as the amorphous sodium salt.
A further series has as its system P-gp (MDR1). The experiment in a line: Bi-directional permeability in MDR1-MDCK cell line. It counts as in vitro ADME. The note with it: dog; MDR1-MDCK cell line, bi-directional; read-out: MDCK asymmetry ratio (efflux ratio). From the text:
(§1) The potential drug candidate 10 has excellent physico-chemical properties.

Series [1] can be described thus: Bi-directional permeability in MDR1-MDCK cell line. It counts as in vitro ADME. The note with it: dog; MDR1-MDCK cell line.
Source text: as §1

The test system of another series is MDR1-MDCK cell line. Put plainly: Bi-directional permeability in MDR1-MDCK cell line. Type of series: in vitro ADME.
Source text: as §1

Another series concerns Cerebellar neurons. The experiment in a line: Neurite outgrowth in cerebellar cultures on CHO-MAG monolayer. The note with it: 24 hr treatment, 1 × 10^−8–1 × 10^−6 M. Type of series: cell-based. The method, then:
Compound 10 was evaluated for neurite outgrowth/branching in cerebellar cultures. Cerebellar cultures grown on a monolayer of CHO-MAG were treated with RARβ agonists and neurite outgrowth was assessed by immunostaining and neurite length quantification.[10]
Fig. 1 Effects of RARβ agonists 10 on neurite outgrowth. Cerebellar neurons grown on a monolayer of CHO-MAG cells were treated for 24 hr with either vehicle (V) or increasing doses of RARβ agonists (1 × 10^−8–1 × 10^−6 M). Both RARβ agonists increase neurite outgrowth in a dose dependant manner. Results are means from 3 independent experiments. Statistical analysis was done using Student’s t-test between vehicle and each drug’s highest dose. Error bars are SEM and **p ≤ 0.001, *p ≤ 0.01.

Series [2] can be described thus: Human microsomal stability (Clint). It counts as in vitro ADME.
In a further series the target is T1, Cyp450 1A2 (Homo sapiens, UniProt P05177).
T1 sequence (P05177 1-516): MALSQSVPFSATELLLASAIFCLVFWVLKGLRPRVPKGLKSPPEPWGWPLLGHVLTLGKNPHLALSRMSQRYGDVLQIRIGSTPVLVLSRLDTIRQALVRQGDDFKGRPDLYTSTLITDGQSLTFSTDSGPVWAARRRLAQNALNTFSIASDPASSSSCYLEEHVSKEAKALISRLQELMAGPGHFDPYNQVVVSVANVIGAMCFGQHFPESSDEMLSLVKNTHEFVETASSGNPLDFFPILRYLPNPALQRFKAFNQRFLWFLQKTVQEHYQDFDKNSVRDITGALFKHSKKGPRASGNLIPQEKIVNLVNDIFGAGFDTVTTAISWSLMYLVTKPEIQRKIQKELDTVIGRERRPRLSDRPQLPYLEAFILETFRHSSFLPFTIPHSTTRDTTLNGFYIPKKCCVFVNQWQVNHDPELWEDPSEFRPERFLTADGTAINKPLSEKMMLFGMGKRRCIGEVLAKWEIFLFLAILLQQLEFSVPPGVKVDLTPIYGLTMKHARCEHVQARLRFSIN
Put plainly: Cyp450 inhibition, 1A2. Type of series: in vitro ADME. The note with it: isoform 1A2.

Molecules are shown by their SMILES.

Experimental findings from PMC6419571, “Discovery and lead optimisation of a potent, selective and orally bioavailable RARβ agonist for the potential treatment of nerve injury” (Bioorganic & Medicinal Chemistry Letters, 2019) are described below.

A word on the solubility: it is how much of the substance goes into solution per volume. The term Papp denotes the rate of passage across a membrane or cell layer, normalised by area and donor concentration. A high value points to fast passage. What is called microsomal CLint is a measure of how fast metabolising enzymes remove a compound, apart from limits set by blood flow. A higher microsomal CLint goes with faster metabolism. Broadly, the IC50 is the concentration needed to halve the response being measured.

`Cc1ccc(C)c2oc(-c3nc(-c4ccc(C(=O)O)cc4)no3)cc12` [Compound 10, 4-(5-(4,7-dimethylbenzofuran-2-yl)-1,2,4-oxadiazol-3-yl)benzoic acid]: the “in vitro micronucleus test result” value with CHO-K1 cells is listed as “negative”. In “Solubility”, the solubility is more than 100 µM. In the series with P-gp (MDR1), the efflux ratio amounted to 0.8. Also, in series [1], the Papp amounted to 28 ×10⁻⁶ cm/s. In addition, the “permeability (in words)” value with MDR1-MDCK cell line is reported as “good permeability”. The “MDCK asymmetry ratio (efflux ratio)” value in the series with MDR1-MDCK cell line (MDR1-MDCK cell line, bi-directional) was “close to unity”. For the same molecule, the “neurite length / outgrowth” value with Cerebellar neurons is reported as “increased neurite length in a dose dependant manner”. In series [2], the “stability in human microsomes (in words)” value was “very high stability”. Further, in series [2] (human microsomes, 37 °C, NADPH, 45 min, mean of 5 experiments), the microsomal CLint is less than 1 µL/min/mg. The same molecule came in with an IC50 against Cyp450 1A2 of more than 25 µM.
